Assay: sensory evaluation of purified components for salty taste enhancing effect
Details: components purified from Jinhua dry-cured ham crude peptides (Sephadex G-15, DEAE anion column); sensory evaluation with electronic tongue-assisted analysis
Method: The crude polypeptides obtained in S2 were dissolved in pure water, filtered by 0.22 μm of aqueous phase membrane, and then loaded onto a Sephadex G-15 gel filtration column (3.0×200 cm) for purification at 25° C. Specific chromatographic parameters: the sample mass concentration was 40 mg/mL; the injection volume was 200 μL; the eluent was 0.01 M of hydrochloric acid buffer solution at a flow rate of 0.5 mL/min, the primary UV ultraviolet detection wavelength was 214 nm, and the secondary UV ultraviolet detection wavelength was 250 nm. All purified components were subject to a sensory evaluation according to their respective chromatographic peaks. […]

Asp-Leu [Asp-Leu (DL)]
salty taste enhancing effect: optimal salty taste enhancing effect

From patent publication US11834481B1, “Salty taste enhancing peptide derived from dry-cured ham and preparation method thereof” (Hefei University of Technology, priority 2022, dated 2023)
